Consider 4 compounds from ChEMBL document CHEMBL1127215, “()-7-deazaaristeromycin lacking the hydroxymethyl substituent” (Bioorg Med Chem Lett, 1993).

By IC50 is commonly meant the midpoint of a concentration-inhibition curve. Low values mean greater potency, high ones weaker potency.

SMILES strings stand for the structures. ≈ marks a conversion by molar mass, not a printed value.

Assay [1] has as its target Adenosylhomocysteinase (Homo sapiens, UniProt P23526). The assay can be described thus: Tested for inhibitory concentration against S-adenosyl-homocysteine hydrolase.
Assay [2] has as its system E6SM. The assay can be described thus: Tested for antiviral activity against HSV-1 (KOS) in E6SM cells. It counts as functional. Conditions: Homo sapiens.
The subject of assay [3] is E6SM. The assay can be described thus: Tested for antiviral activity against HSV-2 (G) in E6SM cells. The assay is classed as functional. The following applies: Homo sapiens.
Assay [4] concerns E6SM. Kind of assay: Tested for antiviral activity against TK-HSV-1 (B2006) in E6SM cells. The assay is classed as functional. Conditions: Homo sapiens.
In assay [5] the test system is E6SM. The assay can be described thus: Tested for toxicity against morphology of E6SM cells. The assay is classed as functional. Conditions: Homo sapiens.
In assay [6] the test system is HeLa. The assay can be described thus: Tested for antiviral activity against respiratory syncytial (long) in HeLa cells. It counts as functional. The following applies: Homo sapiens.
The subject of assay [7] is HeLa. The assay can be described thus: Tested for toxicity against morphology of HeLa cells. The assay is classed as functional. The following applies: Homo sapiens.
Assay [8] has as its system HeLa. Kind of assay: Tested for antiviral activity against coxsackie B4 in HeLa cells. The assay is classed as functional. Conditions: Homo sapiens.
Assay [9] has as its system HEL. Kind of assay: Tested for anti-HCMV activity using AD-169 and Davis strains in HEL cells. Conditions: Homo sapiens. The assay is classed as functional.
The subject of assay [10] is HEL. The assay can be described thus: Tested for effect on HEL cells growth viability for anti-HCMV activity. It counts as functional. The following applies: Homo sapiens.
Assay [11] deals with MDCK. Kind of assay: Tested for toxicity against morphology of MDCK cells. Conditions: Canis lupus familiaris. It counts as functional.
The subject of assay [12] is MT4. The assay can be described thus: Tested for antiviral activity against HIV-1 (IIIB/LAI) in MT-4 cells. The assay is classed as functional. Conditions: Homo sapiens.
The test system of assay [13] is MT4. Kind of assay: Tested for antiviral activity against HIV-2 (ROD) in MT-4 cells. The assay is classed as functional. Conditions: Homo sapiens.
The test system of assay [14] is MT4. Kind of assay: Tested for toxicity against growth/viability of MT-4 cells. The assay is classed as functional. The following applies: Homo sapiens.
The subject of assay [15] is Vero. The assay can be described thus: Tested for toxicity against morphology of vero cells. The assay is classed as functional. The following applies: Chlorocebus sabaeus.
In assay [16] the test system is Vero. The assay can be described thus: Tested for antiviral activity against Junin in vero cells. It counts as functional. The following applies: Chlorocebus sabaeus.
Assay [17] has as its system Vero. Kind of assay: Tested for antiviral activity against forest in vero cells. It counts as functional. The following applies: Chlorocebus sabaeus.
For assay [18], the system named is Vero. Kind of assay: Tested for antiviral activity against Sindbis in vero cells. It counts as functional. Conditions: Chlorocebus sabaeus.
The test system of assay [19] is Vero. The assay can be described thus: Tested for antiviral activity against Tacaribe in vero cells. Conditions: Chlorocebus sabaeus. The assay is classed as functional.
Assay [20] concerns Vero. The assay can be described thus: Tested for antiviral activity against coxsackie B4 in vero cells. The following applies: Chlorocebus sabaeus. The assay is classed as functional.
Assay [21] has as its system Vero. Kind of assay: Tested for antiviral activity against parainfluenza 3 (VR-93) in vero cells. The assay is classed as functional. Conditions: Chlorocebus sabaeus.
In assay [22] the test system is Vero. Kind of assay: Tested for antiviral activity against reo-1 in vero cells. It counts as functional. The following applies: Chlorocebus sabaeus.

Sequence of Adenosylhomocysteinase (P23526 whole entry): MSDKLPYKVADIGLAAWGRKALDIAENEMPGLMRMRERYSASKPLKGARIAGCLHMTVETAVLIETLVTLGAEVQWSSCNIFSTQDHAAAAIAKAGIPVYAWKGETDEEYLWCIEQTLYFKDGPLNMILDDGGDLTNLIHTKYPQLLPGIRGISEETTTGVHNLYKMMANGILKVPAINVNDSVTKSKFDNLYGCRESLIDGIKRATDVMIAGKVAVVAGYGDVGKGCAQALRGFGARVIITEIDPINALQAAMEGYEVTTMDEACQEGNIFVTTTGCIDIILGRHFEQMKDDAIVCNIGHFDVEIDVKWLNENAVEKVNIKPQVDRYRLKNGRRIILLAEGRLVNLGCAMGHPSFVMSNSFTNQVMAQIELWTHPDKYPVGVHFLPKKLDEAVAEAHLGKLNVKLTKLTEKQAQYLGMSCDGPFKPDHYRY

`Nc1ccnc2c1ncn2[C@@H]1C[C@H](CO)[C@@H](O)[C@H]1O` registered an IC50 in assay [1] of 18 nM.
With `Nc1ncnc2c1ccn2C1CCC(O)C1O` (stereo not given), the MIC50 in [2] was greater than 200 µg/mL; in [3] it was greater than 200 µg/mL; in [4], greater than 200 µg/mL; in assay [5], greater than 200 µg/mL; in assay [6], greater than 100 µg/mL; in assay [7], greater than 200 µg/mL. Also, the MIC50 in assay [8] was greater than 200 µg/mL; in [9], 18 µg/mL (≈ 76.8 µM); in assay [10] it was 130 µg/mL (≈ 555 µM); in assay [11], greater than 100 µg/mL; in assay [12] it was greater than 130 µg/mL; in assay [13] it was greater than 130 µg/mL. Further, the MIC50 in [14] was greater than 130 µg/mL; in assay [15] it was greater than 200 µg/mL; in assay [16] it was 84 µg/mL (≈ 359 µM); in [17] it was greater than 200 µg/mL; in assay [18], greater than 200 µg/mL; in assay [19] it was 64 µg/mL (≈ 273 µM). The MIC50 was greater than 200 µg/mL in assay [20], 150 µg/mL (≈ 640 µM) in assay [21] and greater than 200 µg/mL in assay [22]. Also, the IC50 in assay [1] is greater than 100000 nM.
`Nc1ncnc2c1ncn2[C@@H]1C=C(CO)[C@@H](O)[C@H]1O` [NEOPLANOCIN A] returned an IC50 in [1] of 7.2 nM.
The same measure, in the same setting: the result for `Nc1ncnc2c1ncn2C[C@H](O)CO` [(S)-DHPA] reads 280 nM.
